No end group written: not given here.

The values below come from patent publication US9169315B2, “Heparin cofactor II fragments with anti-inflammatory and anti-coagulant activity” (XIMMUNE AB, priority 2009, dated 2015).

The nature of data set [1]: Liposome leakage assay (carboxyfluorescein release). The following applies: for CF release from liposomes: 10 mM Tris-buffer. The text has this: The liposomes investigated were anionic (DOPE/DOPG 75/25 mol/mol). DOPG (1,2-Dioleoyl-sn-Glycero-3-Phosphoglycerol, monosodium salt), and DOPE (1,2-dioleoyl-sn-Glycero-3-phoshoetanolamine) were all from Avanti Polar Lipids (Alabaster, USA) and of >99% purity. Due to the long, symmetric and unsaturated acyl chains of these phospholipids, several methodological advantages are reached. In particular, membrane cohesion is good, which facilitates very stable, unilamellar, and largely defect-free liposomes (observed from cryo-TEM) and well defined supported lipid bilayers (observed by ellipsometry and AFM), allowing detailed values on leakage and adsorption density to be obtained. The lipid mixtures were dissolved in chloroform, after which solvent was removed by evaporation under vacuum overnight. Subsequently, 10 mM Tris buffer, pH 7.4, was added together with 0.1 M carboxyfluorescein (CF) (Sigma, St. Louis, USA). After hydration, the lipid mixture was subjected to eight freeze-thaw cycles consisting of freezing in liquid nitrogen and heating to 60° C. Unilamellar liposomes of about Ø140 nm were generated by multiple extrusions through polycarbonate filters (pore size 100 nm) mounted in a LipoFast miniextruder (Avestin, Ottawa, Canada) at 22° C. Untrapped CF was removed by two subsequent gel filtrations (Sephadex G-50, GE Healthcare, Uppsala, Sweden) at 22° C., with Tris buffer as eluent. CF release from the liposomes was determined by monitoring the emitted fluorescence at 520 nm from a liposome dispersion ([…] in 10 mM Tris, pH 7.4). An absolute leakage scale was obtained by disrupting the liposomes at the end of each experiment through addition of 0.8 mM Triton X-100 (Sigma-Aldrich, St. Louis, USA). A SPEX-fluorolog 1650 0.22-m double spectrometer (SPEX Industries, Edison, USA) was used for the liposome leakage assay in Tris buffer in the absence and presence of liposomes under conditions described above. Measurements were performed in triplicate at 37° C.
The liposomes investigated were either zwitterionic (DOPC/cholesterol 60/40 mol/mol or DOPC without cholesterol) or anionic (DOPE/DOPG 75/25 mol/mol). DOPG (1,2-Dioleoyl-sn-Glycero-3-Phosphoglycerol, monosodium salt), DOPC (1,2-dioleoyl-sn-Glycero-3-phoshocholine), and DOPE (1,2-dioleoyl-sn-Glycero-3-phoshoetanolamine) were all from Avanti Polar Lipids (Alabaster, USA) and of >99% purity, while cholesterol (>99% purity), was from Sigma-Aldrich (St. Louis, USA). Due to the long, symmetric and unsaturated acyl chains of these phospholipids, several methodological advantages are reached. […] CF release from the liposomes was determined by monitoring the emitted fluorescence at 520 nm from a liposome dispersion (10 mM lipid in 10 mM Tris, pH 7.4). […]

Data set [2] has as its system P. aeruginosa, E. coli, S. pyogenes, S. aureus, C. albicans. The experiment in a line: Antibacterial effects in human blood infected by bacteria. The data set is classed as cell-based. The conditions noted are these: 50% citrate blood. As for the experimental part: (§1) (A) Antibacterial effects of NLF20 in presence of the indicated bacteria in human blood (made 50% in PBS) are presented. The indicated microbes (2×10^8 cfu/ml) were added to 50% citrate blood, followed by addition of peptide at 30, 60 or 120 μM. The number of cfu was determined after an incubation period of 1 h. (B) In an identical setup, hemolysis effects were studied. The bacteria were added to 50% citrate blood, followed by addition of peptide. Hemolysis was assessed after 1 hour.
E. coli ATCC 25922, P. aeruginosa 15159, or S. aureus ATCC 29213 bacteria were grown to mid-logarithmic phase in Todd-Hewitt (TH) medium (Becton and Dickinson, Maryland, USA). The microorganisms were then washed and diluted in 10 mM Tris, pH 7.4 containing 5 mM glucose. Following this, bacteria (50 μl; 2×10^6 cfu/ml) were incubated, at 37° C. for 2 hours, with NLF20 or LL-37 (at 0.03, 0.06, 0.3, 0.6, 3, 6, 30, 60 μM) in 10 mM Tris, 0.15 M NaCl, with or without 20% human citrate-plasma. […] To quantify the bactericidal activity, serial dilutions of the incubation mixtures were plated on TH agar, followed by incubation at 37° C. overnight and the number of colony-forming units was determined. […] Significance was determined using the statistical software SigmaStat (SPSS Inc., Chicago, Ill., USA).

For a further data set, the system named is human blood. The experiment in a line: Hemolysis in human blood infected by bacteria. The data set is classed as cell-based. The following applies: peptide dose of 120 μM. As for the experimental part: as §1
In the experiments with blood infected by bacteria, citrate-blood was diluted (1:1) with PBS.

Another data set has as its system RAW 264.7 macrophages. In words: Cytokines in supernatants of LPS-stimulated macrophages. The data set is classed as cell-based, mouse. The following applies: 10 ng/ml E. coli LPS. How it is done:
RAW 264.7 macrophages were stimulated with 10 ng/ml E. coli LPS in combination with indicated concentrations of the two peptides. (B) Similar as above, but using P. aeruginosa LPS(C) KYE28 reduced TNF-αproduction, MCP-1 and IL-10 production in macrophages. RAW 264. 7 cells were stimulated with 10 ng/ml E. coli LPS and cytokines were analysed in the cell supernatants
The cytokines IL-6, IL-10, MCP-1, INF-γ, and TNF-α were measured in cell culture supernatants from RAW264.7 cells and plasma from mice injected with LPS or P. aeruginosa (with or without peptide treatment) using the Cytometric bead array; Mouse Inflammation Kit (Becton Dickinson AB) according to the manufacturer's instructions. All plasma samples were stored at −20° C. before the analysis.

As for NLFRKLTHRLFRRNFGYTLR [NLF20], in data set [1], the “Time within which ~80% of the maximal CF release occurred” value is 5 to 10 min and the “CF release from liposomes” value is on record as “caused CF release”. The “Antibacterial effect in infected human blood” value in data set [2] (P. aeruginosa, E. coli, S. pyogenes, peptide dose 120 μM, 1 h) is recorded as “almost complete eradication of P. aeruginosa, E. coli, as well as S. pyogenes”. Also, the “Antibacterial/antifungal effect in infected human blood” value in data set [2] (S. aureus and C. albicans) is recorded as “not active”. Further, the “Accompanying hemolysis in infected human blood” value in the data set with human blood was not above 2%.

Take KYEITTIHNLFRKLTHRLFRR [KYE21]: in data set [1], the “Time within which ~80% of the maximal CF release occurred” value fell in the range of 5 to 10 min and the “CF release from liposomes” value is reported as “caused CF release”.

For KYEITTIHNLFRKLTHRLFRRNFGYTLR [KYE28], in the data set on RAW 264.7 macrophages, the IL-10 production result is “reduced”, the MCP-1 production result is “reduced” and the TNF-α production result is “reduced”.
